Bounds are passed on as bounds.

Chain of recombinant human TYRO3 (Q06418 41-890): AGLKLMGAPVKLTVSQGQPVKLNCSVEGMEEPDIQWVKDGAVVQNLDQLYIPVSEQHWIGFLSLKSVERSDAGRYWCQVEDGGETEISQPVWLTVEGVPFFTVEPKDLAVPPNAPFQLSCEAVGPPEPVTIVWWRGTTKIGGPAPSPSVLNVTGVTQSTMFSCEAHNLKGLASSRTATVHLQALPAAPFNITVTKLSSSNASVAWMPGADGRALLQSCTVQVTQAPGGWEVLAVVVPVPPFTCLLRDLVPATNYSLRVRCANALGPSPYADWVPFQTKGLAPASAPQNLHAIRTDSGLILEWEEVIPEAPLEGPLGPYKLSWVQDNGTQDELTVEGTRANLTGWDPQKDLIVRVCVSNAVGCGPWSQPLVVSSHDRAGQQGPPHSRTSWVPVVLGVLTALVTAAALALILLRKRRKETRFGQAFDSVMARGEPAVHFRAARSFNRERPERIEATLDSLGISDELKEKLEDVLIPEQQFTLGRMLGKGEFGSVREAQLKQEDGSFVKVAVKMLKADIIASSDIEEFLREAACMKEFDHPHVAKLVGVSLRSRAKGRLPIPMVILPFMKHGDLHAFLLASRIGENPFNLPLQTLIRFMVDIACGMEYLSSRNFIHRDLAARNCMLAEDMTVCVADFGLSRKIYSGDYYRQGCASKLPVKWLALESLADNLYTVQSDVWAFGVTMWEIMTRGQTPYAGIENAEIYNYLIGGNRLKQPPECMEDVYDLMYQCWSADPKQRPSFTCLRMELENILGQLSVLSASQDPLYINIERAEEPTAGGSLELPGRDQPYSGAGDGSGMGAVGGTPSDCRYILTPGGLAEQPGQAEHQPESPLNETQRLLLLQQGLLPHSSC

This experiment addresses recombinant human TYRO3 (Homo sapiens (Human), UniProt Q06418). The experiment in a line: TYRO3 enzymatic assay (radiometric [32P]-ATP, Poly(Glu,Tyr) substrate). Particulars: recombinant human TYRO3, [32P]-ATP. It is filed as biochemical. As for the experimental part: Poly(Glu, Tyr) sodium salt (Glu:Tyr (4:1), quality level 200, molecular weight 5,000-20,000, obtained from Sigma Aldrich, catalogue #P7244, assay concentration 0.20 mg/mL) and recombinant human TYRO3 (obtained from ThermoFisher Scientific, catalogue #PV3828, assay concentration 2 nM) were mixed in assay buffer (20 mM Hepes pH 7.5, 10 mM MgCl2, 1 mM EGTA, 0.02% Brij35, 0.02 mg/ml BSA, 0.1 mM Na3VO4, 2 mM DTT, 1% DMSO, with added MnCl2 at a final concentration of 2 mM). Compounds of interest (in DMSO, serial 3-fold dilution from 10 μM to 0.5 nM) or control (1% DMSO) were dispensed into the kinase reaction mixture by Acoustic technology (Echo550; nanoliter range). After incubation at room temperature for 20 minutes, the kinase reaction was initiated by addition of [^32P]-ATP (Specific activity 10 μCi/μl) and the mixture was incubated at room temperature for 2 hours. The reaction was then stopped by spotting the reaction mixture on strips of phosphocellulose P81 paper. Following washing, the radioactivity of the P81 paper was measured and kinase activity data were expressed as the percent remaining kinase activity in test samples compared to vehicle (dimethyl sulfoxide) reactions. IC50 values and curve fits were obtained using Prism (GraphPad Software).
Consider `CN1CCc2cc(-c3c[nH]c4ncc(-c5ccc(CN6CCCC(CO)C6)cc5)cc34)ccc2C1` (stereo not shown) [compound 82, (1-(4-(3-(2-methyl-1,2,3,4-tetrahydroisoquinolin-6-yl)-1H-pyrrolo[2,3-b]pyridin-5-yl)benzyl)piperidin-3-yl)methanol], for which the IC50 fell in the range of 0.051 to 0.15 µM.
The value for `CC1(O)CCN(c2ccc(-c3cnc4[nH]cc(-c5ccc6[nH]ccc6c5)c4c3)cc2)CC1` [compound 77, 1-(4-(3-(1H-indol-5-yl)-1H-pyrrolo[2,3-b]pyridin-5-yl)phenyl)-4-methylpiperidin-4-ol] was 0.151 to 0.5 µM; that for `OCc1[nH]c2ncc(-c3ccc(CN4CCCC(O)C4)cc3)cc2c1-c1cccc(F)c1` (single isomer, unassigned; enantiomer 2) [compound 89, 1-(4-(3-(3-fluorophenyl)-2-(hydroxymethyl)-1H-pyrrolo[2,3-b]pyridin-5-yl)benzyl)piperidin-3-ol Enantiomer 2] was 0.051 to 0.15 µM; that for `OC1CCCN(Cc2ccc(-c3cnc4[nH]cc(-c5cccc(Cl)c5)c4c3)cc2)C1` (stereo not shown) [compound 8, 1-(4-(3-(3-chlorophenyl)-1H-pyrrolo[2,3-b]pyridin-5-yl)benzyl)piperidin-3-ol] was 0.051 to 0.15 µM.
The value for `COCc1[nH]c2ncc(-c3ccc(CN4CCCC(O)C4)cc3)cc2c1-c1ccc(F)nc1` (stereo not shown) [compound 64, 1-(4-(3-(6-fluoropyridin-3-yl)-2-(methoxymethyl)-1H-pyrrolo[2,3-b]pyridin-5-yl)benzyl)piperidin-3-ol] was 0.051 to 0.15 µM; that for `OC1CCCN(Cc2ccc(-c3cnc4[nH]c(Cl)c(-c5cccc(F)c5)c4c3)cc2)C1` (stereo not shown) [compound 54, 1-(4-(2-chloro-3-(3-fluorophenyl)-1H-pyrrolo[2,3-b]pyridin-5-yl)benzyl)piperidin-3-ol] was 0.051 to 0.15 µM.
The value for `CCN1CCc2cc(-c3c[nH]c4ncc(-c5ccc(CN6CCCC(O)C6)cc5)cc34)ccc2C1` (stereo not shown) [compound 81, 1-(4-(3-(2-ethyl-1,2,3,4-tetrahydroisoquinolin-6-yl)-1H-pyrrolo[2,3-b]pyridin-5-yl)benzyl)piperidin-3-ol] was 0.051 to 0.15 µM; that for `COCC1CCCN(Cc2ccc(-c3cnc4[nH]cc(-c5ccc(OC)nc5)c4c3)cc2)C1` (stereo not shown) [compound 70, 5-(4-((3-(methoxymethyl)piperidin-1-yl)methyl)phenyl)-3-(6-methoxypyridin-3-yl)-1H-pyrrolo[2,3-b]pyridine] was 0.051 to 0.15 µM; that for `COc1ccc(-c2c[nH]c3ncc(-c4ccc(CN5CCCC(CO)C5)cc4)cc23)cn1` (stereo not shown) [compound 32, (1-(4-(3-(6-methoxypyridin-3-yl)-1H-pyrrolo[2,3-b]pyridin-5-yl)benzyl)piperidin-3-yl)methanol] was 0.051 to 0.15 µM.
For `COc1ccc(-c2c[nH]c3ncc(-c4ccc(CN5CCCC(O)C5)cc4)cc23)cn1` (single isomer, unassigned; enantiomer 2) [compound 27, 1-(4-(3-(6-methoxypyridin-3-yl)-1H-pyrrolo[2,3-b]pyridin-5-yl)benzyl)piperidin-3-ol Enantiomer 2], the IC50 lay in the range of 0.051 to 0.15 µM.
Under `COc1ccc(-c2c[nH]c3ncc(-c4ccc(CN5CCC(O)CC5)cc4)cc23)cn1` [compound 28, 1-(4-(3-(6-methoxypyridin-3-yl)-1H-pyrrolo[2,3-b]pyridin-5-yl)benzyl)piperidin-4-ol] stands 0.151 to 0.5 µM; under `OC1CCCN(Cc2ccc(-c3cnc4[nH]cc(-c5ccc(Cl)cc5)c4c3)cc2)C1` (stereo not shown) [compound 7, 1-(4-(3-(4-chlorophenyl)-1H-pyrrolo[2,3-b]pyridin-5-yl)benzyl)piperidin-3-ol], 0.051 to 0.15 µM; under `OC1CCCN(Cc2ccc(-c3cnc4[nH]c(Cl)c(-c5cccc(C(F)F)c5)c4c3)cc2)C1` (stereo not shown) [compound 55, 1-(4-(2-chloro-3-(3-(difluoromethyl)phenyl)-1H-pyrrolo[2,3-b]pyridin-5-yl)benzyl)piperidin-3-ol], 0.151 to 0.5 µM.
For the molecule `OC1CCCN(Cc2ccc(-c3cnc4[nH]c(C(F)F)c(-c5cccc(F)c5)c4c3)cc2)C1` (stereo not shown) [compound 68, 1-(4-(2-(difluoromethyl)-3-(3-fluorophenyl)-1H-pyrrolo[2,3-b]pyridin-5-yl)benzyl)piperidin-3-ol], the IC50 lay in the range of 0.051 to 0.15 µM.
Consider `OC1CCCN(Cc2ccc(-c3cnc4[nH]cc(-c5ccc(C(F)(F)F)nc5)c4c3)cc2)C1` (stereo not shown) [compound 24, 1-(4-(3-(6-(trifluoromethyl)pyridin-3-yl)-1H-pyrrolo[2,3-b]pyridin-5-yl)benzyl)piperidin-3-ol], for which the concentration for half-maximal inhibition (IC50) fell in the range of 0.051 to 0.15 µM.
As for `COc1ccc(-c2c[nH]c3ncc(-c4ccc(CN5CCCC(OC(C)=O)C5)cc4)cc23)cn1` (stereo not shown) [compound 69, 1-(4-(3-(6-methoxypyridin-3-yl)-1H-pyrrolo[2,3-b]pyridin-5-yl)benzyl)piperidin-3-yl acetate], the IC50 lay within 0.151 to 0.5 µM.
In the case of `Cc1ccc(-c2c[nH]c3ncc(-c4ccc(CN5CCCC(O)C5)cc4)cc23)cn1` (stereo not shown) [compound 20, 1-(4-(3-(6-methylpyridin-3-yl)-1H-pyrrolo[2,3-b]pyridin-5-yl)benzyl)piperidin-3-ol], the IC50 lay in the range of 0.051 to 0.15 µM.
The value for `OC1CCCN(Cc2ccc(-c3cnc4[nH]cc(-c5ccc(C(F)(F)F)cc5)c4c3)cc2)C1` (stereo not shown) [compound 10, 1-(4-(3-(4-(trifluoromethyl)phenyl)-1H-pyrrolo[2,3-b]pyridin-5-yl)benzyl)piperidin-3-ol] was 0.151 to 0.5 µM.
Turning to `COc1ccc(-c2c[nH]c3ncc(-c4ccc(CN5CCC(C)(O)CC5)cc4)cc23)cn1` [compound 71, 1-(4-(3-(6-methoxypyridin-3-yl)-1H-pyrrolo[2,3-b]pyridin-5-yl)benzyl)-4-methylpiperidin-4-ol], the IC50 fell in the range of 0.051 to 0.15 µM.
The value for `COc1ccc(-c2c[nH]c3ncc(-c4ccc(CN5CCCC(C)(O)C5)cc4)cc23)cn1` (stereo not shown) [compound 30, 1-(4-(3-(6-methoxypyridin-3-yl)-1H-pyrrolo[2,3-b]pyridin-5-yl)benzyl)-3-methylpiperidin-3-ol] was 0.051 to 0.15 µM; that for `COc1ccc(-c2c(C)[nH]c3ncc(-c4ccc(CN5CCCC(O)C5)cc4)cc23)cn1` (stereo not shown) [compound 62, 1-(4-(3-(6-methoxypyridin-3-yl)-2-methyl-1H-pyrrolo[2,3-b]pyridin-5-yl)benzyl)piperidin-3-ol] was 0.051 to 0.15 µM; that for `Fc1cccc(-c2c[nH]c3ncc(-c4ccc(CN5C[C@@H]6C[C@H]5CO6)cc4)cc23)c1` [compound 6, (1S,4S)-5-(4-(3-(3-fluorophenyl)-1H-pyrrolo[2,3-b]pyridin-5-yl)benzyl)-2-oxa-5-azabicyclo[2.2.1]heptane] was 0.051 to 0.15 µM.
The value for `COc1ccc(-c2c[nH]c3ncc(-c4ccc(CN5CCCC(O)C5)cc4)cc23)cn1` (single isomer, unassigned; enantiomer 1) [compound 26, 1-(4-(3-(6-methoxypyridin-3-yl)-1H-pyrrolo[2,3-b]pyridin-5-yl)benzyl)piperidin-3-ol Enantiomer 1] was below 0.051 µM.
The value for `COc1ccc(-c2c[nH]c3ncc(-c4ccc(CN5CCC6(CC5)CN(C)C6)cc4)cc23)cn1` [compound 42, 7-(4-(3-(6-methoxypyridin-3-yl)-1H-pyrrolo[2,3-b]pyridin-5-yl)benzyl)-2-methyl-2,7-diazaspiro[3.5]nonane] was 0.151 to 0.5 µM; that for `COc1ccc(-c2c[nH]c3ncc(-c4ccc(CN5CCC(N(C)C)CC5)cc4)cc23)cn1` [compound 74, 1-(4-(3-(6-methoxypyridin-3-yl)-1H-pyrrolo[2,3-b]pyridin-5-yl)benzyl)-N,N-dimethylpiperidin-4-amine] was 0.151 to 0.5 µM.
On to `CC1(O)CCCN(Cc2ccc(-c3cnc4[nH]cc(-c5cccc(F)c5)c4c3)cc2)C1` (stereo not shown) [compound 5, 1-(4-(3-(3-fluorophenyl)-1H-pyrrolo[2,3-b]pyridin-5-yl)benzyl)-3-methylpiperidin-3-ol], for which the IC50 was 0.051 to 0.15 µM.
Under `COc1ccc(-c2c[nH]c3ncc(-c4ccc(CN5CCCC(F)C5)cc4)cc23)cn1` (stereo not shown) [compound 40, 5-(4-((3-fluoropiperidin-1-yl)methyl)phenyl)-3-(6-methoxypyridin-3-yl)-1H-pyrrolo[2,3-b]pyridine] stands 0.151 to 0.5 µM; under `COc1ccc(-c2c[nH]c3ncc(-c4ccc(CN5CCC(O)C5)cc4)cc23)cn1` (stereo not shown) [compound 29, 1-(4-(3-(6-methoxypyridin-3-yl)-1H-pyrrolo[2,3-b]pyridin-5-yl)benzyl)pyrrolidin-3-ol], 0.051 to 0.15 µM.
Consider `COc1ccc(-c2c[nH]c3ncc(-c4ccc(CN5CCC(OC)CC5)cc4)cc23)cn1` [compound 34, 5-(4-((4-methoxypiperidin-1-yl)methyl)phenyl)-3-(6-methoxypyridin-3-yl)-1H-pyrrolo[2,3-b]pyridine], for which the IC50 lay within 0.051 to 0.15 µM.
In the case of `OC1CCCN(Cc2ccc(-c3cnc4[nH]cc(-c5cccc(C(F)(F)F)c5)c4c3)cc2)C1` (stereo not shown) [compound 11, 1-(4-(3-(3-(trifluoromethyl)phenyl)-1H-pyrrolo[2,3-b]pyridin-5-yl)benzyl)piperidin-3-ol], the IC50 fell in the range of 0.051 to 0.15 µM.
The value for `CC(C)Oc1ccc(-c2c[nH]c3ncc(-c4ccc(CN5CCCC(O)C5)cc4)cc23)cc1C#N` (stereo not shown) [compound 19, 5-(5-(4-((3-hydroxypiperidin-1-yl)methyl)phenyl)-1H-pyrrolo[2,3-b]pyridin-3-yl)-2-isopropoxybenzonitrile] was 0.051 to 0.15 µM.
